Test results from ChEMBL document CHEMBL3992548, “Design, synthesis and biological evaluation of 2,4-disubstituted oxazole derivatives as potential PDE4 inhibitors” (Bioorg Med Chem, 2017).

How the values were obtained:
[1] = system: PBMC; test: Anti-inflammatory activity in human PBMC assessed as inhibition of LPS-induced TNFalpha secretion preincubated for 30 mins followed by LPS stimulation for 18 hrs by TR-FRET assay; format: functional, cell-based
[2] = target: 3',5'-cyclic-AMP phosphodiesterase 4B (Homo sapiens, UniProt Q07343); test: Inhibition of human U937 cells-derived PDE4B using [3H]cAMP as substrate after 30 mins
Sequence of 3',5'-cyclic-AMP phosphodiesterase 4B (Q07343 whole entry): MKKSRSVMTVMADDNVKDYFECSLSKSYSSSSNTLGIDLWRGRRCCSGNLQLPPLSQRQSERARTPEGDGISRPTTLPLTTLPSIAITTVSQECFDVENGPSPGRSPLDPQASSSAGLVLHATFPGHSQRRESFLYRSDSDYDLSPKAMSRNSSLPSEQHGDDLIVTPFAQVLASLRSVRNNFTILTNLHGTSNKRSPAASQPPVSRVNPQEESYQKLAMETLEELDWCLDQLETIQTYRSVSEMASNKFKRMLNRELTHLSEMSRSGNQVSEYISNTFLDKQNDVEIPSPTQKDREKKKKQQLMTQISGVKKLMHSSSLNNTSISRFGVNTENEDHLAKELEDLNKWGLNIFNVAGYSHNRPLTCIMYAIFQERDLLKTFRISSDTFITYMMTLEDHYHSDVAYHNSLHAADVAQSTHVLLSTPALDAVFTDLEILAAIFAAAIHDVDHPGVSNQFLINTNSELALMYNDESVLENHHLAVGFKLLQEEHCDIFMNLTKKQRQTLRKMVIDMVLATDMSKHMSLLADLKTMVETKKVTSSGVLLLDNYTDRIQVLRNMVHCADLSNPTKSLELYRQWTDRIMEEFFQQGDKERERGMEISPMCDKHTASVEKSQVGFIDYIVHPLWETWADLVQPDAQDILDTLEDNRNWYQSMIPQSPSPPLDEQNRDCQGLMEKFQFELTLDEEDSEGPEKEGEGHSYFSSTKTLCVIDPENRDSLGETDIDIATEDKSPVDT

[3] = target: 3',5'-cyclic-AMP phosphodiesterase 4D (Homo sapiens, UniProt Q08499); test: Inhibition of human U937 cells-derived PDE4D using [3H]cAMP as substrate after 30 mins
Sequence of 3',5'-cyclic-AMP phosphodiesterase 4D (Q08499 whole entry): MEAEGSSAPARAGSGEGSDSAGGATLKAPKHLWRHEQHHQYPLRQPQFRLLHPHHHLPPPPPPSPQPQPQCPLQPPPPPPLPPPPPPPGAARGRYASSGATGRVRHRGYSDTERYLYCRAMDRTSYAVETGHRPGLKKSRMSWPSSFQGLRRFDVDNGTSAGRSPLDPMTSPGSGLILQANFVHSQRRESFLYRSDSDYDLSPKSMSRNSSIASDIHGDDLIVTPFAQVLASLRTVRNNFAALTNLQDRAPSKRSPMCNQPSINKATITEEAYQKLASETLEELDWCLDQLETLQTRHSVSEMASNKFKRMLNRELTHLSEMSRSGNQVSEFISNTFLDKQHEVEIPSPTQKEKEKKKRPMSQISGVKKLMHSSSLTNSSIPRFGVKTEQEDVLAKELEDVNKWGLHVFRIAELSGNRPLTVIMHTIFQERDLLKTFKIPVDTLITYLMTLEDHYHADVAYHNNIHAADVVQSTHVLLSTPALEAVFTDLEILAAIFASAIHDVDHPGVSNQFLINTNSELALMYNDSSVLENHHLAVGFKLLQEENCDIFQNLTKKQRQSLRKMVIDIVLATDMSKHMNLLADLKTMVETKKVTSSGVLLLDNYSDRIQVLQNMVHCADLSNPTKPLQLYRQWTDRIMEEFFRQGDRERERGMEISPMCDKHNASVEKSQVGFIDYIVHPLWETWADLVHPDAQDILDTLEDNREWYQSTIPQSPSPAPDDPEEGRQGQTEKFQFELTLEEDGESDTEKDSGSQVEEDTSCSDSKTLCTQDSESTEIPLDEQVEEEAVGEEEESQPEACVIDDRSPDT

[4] = system: Rattus norvegicus; test: Anti-inflammatory activity in Sprague-Dawley rat model of LPS-induced asthma/COPD assessed as inhibition of neutrophilia in lungs at 10 mg/kg, po administered 30 mins prior to LPS challenge for 40 mins measured after 6 hrs relative to control; format: functional
[5] = system: Mus musculus; test: Anti-inflammatory activity in LPS-induced Swiss albino mouse sepsis model assessed as inhibition of TNF-alpha release in serum at 10 mg/kg, po administered 30 mins prior to LPS challenge measured after 90 mins by ELISA relative to control; format: functional

Row | Compound | IC50 [1] | IC50 [2] | IC50 [3] | inhibition in vivo at 10 mg/kg [4] | inhibition in vivo at 10 mg/kg [5]
1 | Cc1cc(C)n(C(=O)c2coc(-c3ccc(F)cc3)n2)n1 | 29.7 µM | 8.4 µM | – | – | –
2 | Cc1cc(C)n(C(=O)c2coc(-c3cccc(F)c3)n2)n1 | 83.4 µM | 40.8 µM | – | – | –
3 | COc1ccc(-c2nc(C(=O)n3nc(C)cc3C)co2)cc1 | 10.3 µM | 1.6 µM | 10.6 µM | 39.1% | 42.6%
4 | O=C(c1coc(-c2ccc(Br)cc2)n1)n1cccn1 | 187 µM | 58.7 µM | – | – | –
5 | O=C(c1coc(-c2ccc(Cl)cc2)n1)n1cccn1 | 40.1 µM | 5.3 µM | – | – | –
6 | COc1ccc(C2CNC(=O)C2)cc1OC1CCCC1 (stereo not drawn) [ROLIPRAM] | 18.6 µM | – | – | 30.9% | 40.8%
7 | Cc1cc(C)n(C(=O)c2coc(-c3ccccc3O)n2)n1 | 139 µM | 54.8 µM | – | – | –
8 | O=C(c1coc(-c2ccccc2O)n1)n1cccn1 | 205 µM | 85.6 µM | – | – | –
9 | Cc1ccc(-c2nc(C(=O)n3cccn3)co2)cc1 | 72.4 µM | 17.5 µM | – | – | –
10 | COc1cccc(-c2nc(C(=O)n3nc(C)cc3C)co2)c1 | 18.7 µM | 4.5 µM | – | – | –
11 | Cc1cc(C)n(C(=O)c2coc(-c3ccccc3)n2)n1 | 199 µM | 75.8 µM | – | – | –
12 | Cc1cc(C)n(C(=O)c2coc(-c3ccc(O)cc3)n2)n1 | 66.4 µM | 15.8 µM | – | – | –
13 | O=C(c1coc(-c2ccccc2)n1)n1cccn1 | 199 µM | 88.7 µM | – | – | –
14 | Cc1cc(C)n(C(=O)c2coc(-c3ccc(Br)cc3)n2)n1 | 168 µM | 54.8 µM | – | – | –
15 | O=C(c1coc(-c2ccc(F)cc2)n1)n1cccn1 | 54.8 µM | 9.8 µM | – | – | –
16 | Cc1cc(C)n(C(=O)c2coc(-c3cccc(O)c3)n2)n1 | 78.4 µM | 28.9 µM | – | – | –
17 | O=C(c1coc(-c2cccc(F)c2)n1)n1cccn1 | 99.6 µM | 45.1 µM | – | – | –
18 | O=C(c1coc(-c2ccc(O)cc2)n1)n1cccn1 | 75.5 µM | 18.4 µM | – | – | –
19 | COc1ccc(-c2nc(C(=O)n3cccn3)co2)cc1 | 20.8 µM | 3.2 µM | 8.4 µM | 22.4% | 26.1%
20 | Cc1cc(C)n(C(=O)c2coc(-c3ccc(Cl)cc3)n2)n1 | 27.6 µM | 4.1 µM | – | – | –
21 | Cc1ccc(-c2nc(C(=O)n3nc(C)cc3C)co2)cc1 | 36.7 µM | 6.7 µM | – | – | –
22 | O=C(c1coc(-c2cccc(O)c2)n1)n1cccn1 | 88.4 µM | 39.7 µM | – | – | –
23 | COc1cccc(-c2nc(C(=O)n3cccn3)co2)c1 | 45.8 µM | 5.9 µM | – | – | –
